The values below come from DBAASP.

The structures appear in SMILES notation. Values after ≈ are worked out from the molar mass of the structure shown.

Holding throughout (assay): ≥ marks a high value that may be exact or a test limit, other limits are often not marked, values filed in µg/mL are converted to µM
Experiment [1] deals with Aspergillus fumigatus KCTC 4165.
For experiment [2], the system named is Salmonella typhimurium KCTC 1926.
Experiment [3] relates to Candida albicans TIMM 1768.
Experiment [4] concerns Bacillus subtilis KCTC 1918.
Experiment [5] relates to Staphylococcus aureus KCTC 1621.
Experiment [6] concerns Pseudomonas aeruginosa KCTC 1637.
Experiment [7] concerns Escherichia coli KCTC 1682.
The test system of experiment [8] is Streptococcus pyogenes KCTC 3096.
For experiment [9], the system named is Streptococcus sanguinis NY101.
Experiment [10] relates to Streptococcus mutans UA159.
Experiment [11] has as its system Streptococcus mutans comD.
In experiment [12] the test system is Streptococcus gordonii DL1.

`CC[C@H](C)[C@H](NC(=O)[C@H](CCCCN)NC(=O)[C@H](CCCCN)NC(=O)[C@H](CC(C)C)NC(=O)[C@H](CCCCN)NC(=O)[C@H](CCC(=O)O)NC(=O)CN)C(=O)NCC(=O)N[C@@H](CCC(N)=O)C(=O)N[C@@H](CCCCN)C(=O)N[C@H](C(=O)N[C@@H](CCCCN)C(=O)N[C@@H](CC(N)=O)C(=O)N[C@@H](Cc1ccccc1)C(=O)N[C@@H](Cc1ccccc1)C(=O)N[C@@H](CCCCN)C(=O)N[C@@H](CCCCN)C(=O)N[C@@H](CC(C)C)C(=O)O)[C@@H](C)CC` [GEKLKKIGQKIKNFFKKL]: the MIC was 25 µM (≈ 53.7 µg/mL) in experiment [1]; 6.25 µM (≈ 13.4 µg/mL) in [2]; 25 µM (≈ 53.7 µg/mL) in [3]; 6.25 µM (≈ 13.4 µg/mL) in [4]; 6.25 µM (≈ 13.4 µg/mL) in experiment [5]; 3.12 µM (≈ 6.7 µg/mL) in experiment [6]. Besides, the MIC came out at 6.25 µM (≈ 13.4 µg/mL) in [7] and 12.5 µM (≈ 26.8 µg/mL) in experiment [8].
Turning to `CC(C)C[C@H](NC(=O)[C@H](CCCN=C(N)N)NC(=O)[C@H](Cc1ccccc1)NC(=O)[C@H](Cc1ccccc1)NC(=O)[C@@H](N)[C@@H](C)O)C(=O)N[C@@H](Cc1ccccc1)C(=O)N[C@@H](CC(N)=O)C(=O)N[C@@H](CCCN=C(N)N)C(=O)N[C@@H](CO)C(=O)NCC(=O)NCC(=O)NCC(=O)N[C@@H](Cc1ccccc1)C(=O)N[C@@H](CCCCN)C(=O)N[C@@H](CCCCN)C(=O)N[C@@H](Cc1ccccc1)C(=O)N[C@@H](Cc1c[nH]c2ccccc12)C(=O)N[C@@H](CCCCN)C(=O)N[C@@H](Cc1c[nH]c2ccccc12)C(=O)N[C@@H](Cc1ccccc1)C(=O)N[C@@H](CCCN=C(N)N)C(=O)N[C@@H](CCCN=C(N)N)C(=O)N[C@@H](Cc1ccccc1)C(=O)O` [TFFRLFNRSGGGFKKFWKWFRRF], the MIC in experiment [9] turned out to be 20 µM (≈ 60.3 µg/mL); in experiment [10] it was 2.5 µM (≈ 7.54 µg/mL); in [11] it was 2.5 µM (≈ 7.54 µg/mL); in experiment [12], 10 µM (≈ 30.2 µg/mL).

What is called MIC is the least concentration at which growth counts as inhibited. Lower therefore signals greater potency.
